PubChem BioAssay (NCI)
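Grown in 96-well plates, cells were treated for 48 hours with each compound at five concentrations. Insufficient inhibition: endpoint recorded as highest concentration tested. TGI: total growth inhibition.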

Legend:
Assay in all cases: NCI-60 cell line screen, 48 h
[1] = system: XF 498 CNS
[2] = system: SF-268 CNS
[3] = system: NCI-H226 lung
[4] = system: HOP-62 NSCLC
[5] = system: COLO 205 colon
[6] = system: UACC-257 melanoma
[7] = system: HCT-15 colon
[8] = system: A498 renal
[9] = system: NCI-H460 lung
[10] = system: MOLT-4 leukemia
[11] = system: HCT-116 colon
[12] = system: RXF 393 renal
[13] = system: U251 CNS
[14] = system: SW-620 colon
[15] = system: LXFL 529 NSCLC
[16] = system: SK-MEL-28 melanoma
[17] = system: SR leukemia
[18] = system: HOP-18 NSCLC
[19] = system: HT29 colon
[20] = system: K-562 leukemia
[21] = system: MALME-3M melanoma
[22] = system: NCI-H23 lung
[23] = system: CCRF-CEM leukemia
[24] = system: ACHN renal
[25] = system: SF-539 CNS
[26] = system: HOP-92 NSCLC
[27] = system: SK-OV-3 ovarian
[28] = system: KM20L2 colon
[29] = system: EKVX NSCLC
[30] = system: OVCAR-4 ovarian
[31] = system: SF-295 CNS
[32] = system: KM12 colon
[33] = system: LOX IMVI melanoma
[34] = system: SNB-78 CNS
[35] = system: NCI-H522 lung
[36] = system: M19-MEL melanoma
[37] = system: IGROV1 ovarian
[38] = system: OVCAR-8 ovarian
[39] = system: TK-10 renal
[40] = system: 786-0 renal
[41] = system: DMS 273 small cell lung
[42] = system: HL-60(TB) leukemia
[43] = system: SN12C renal
[44] = system: CAKI-1 renal
[45] = system: A549 NSCLC
[46] = system: OVCAR-5 ovarian
[47] = system: HCC-2998 colon
[48] = system: SK-MEL-2 melanoma
[49] = system: SNB-19 CNS
[50] = system: UACC-62 melanoma
[51] = system: DMS 114 small cell lung
[52] = system: SK-MEL-5 melanoma
[53] = system: RPMI-8226 leukemia
[54] = system: UO-31 renal
[55] = system: SNB-75 CNS
[56] = system: M14 melanoma
[57] = system: OVCAR-3 ovarian
[58] = system: DLD-1 colon
[59] = system: MCF7 breast
[60] = system: T-47D breast
[61] = system: MDA-MB-231 breast
[62] = system: HS 578T breast
[63] = system: NCI/ADR-RES ovarian
[64] = system: PC-3 prostate
[65] = system: BT-549 breast
[66] = system: MDA-MB-435
[67] = system: MDA-N
[68] = system: DU-145 prostate
[69] = system: RXF-631 renal

## CC1C2=CC=C(O2)C(C)(C)C2=CC=C(O2)C(C)(C)C2=CC=C(O2)C(C)(C)C2=CC=C1O2
[1]
  TGI: > 100 µM
[2]
  TGI: > 100 µM
[3]
  TGI: > 100 µM
[4]
  TGI: > 100 µM
[5]
  TGI: > 100 µM
[6]
  TGI: > 100 µM
[7]
  TGI: > 100 µM
[8]
  TGI: > 100 µM
[9]
  TGI: > 100 µM
[10]
  TGI: > 100 µM
[11]
  TGI: > 100 µM
[12]
  TGI: > 100 µM
[13]
  TGI: > 100 µM
[14]
  TGI: > 100 µM
[15]
  TGI: > 100 µM
[16]
  TGI: > 100 µM
[17]
  TGI: > 100 µM
[18]
  TGI: > 100 µM
[19]
  TGI: > 100 µM
[20]
  TGI: > 100 µM
[21]
  TGI: > 100 µM
[22]
  TGI: > 100 µM
[23]
  TGI: > 100 µM
[24]
  TGI: > 100 µM
[25]
  TGI: > 100 µM
[26]
  TGI: > 100 µM
[27]
  TGI: > 100 µM
[28]
  TGI: > 100 µM
[29]
  TGI: > 100 µM
[30]
  TGI: > 100 µM
[31]
  TGI: > 100 µM
[32]
  TGI: > 100 µM
[33]
  TGI: > 100 µM
[34]
  TGI: > 100 µM
[35]
  TGI: > 100 µM
[36]
  TGI: > 100 µM
[37]
  TGI: > 100 µM
[38]
  TGI: > 100 µM
[39]
  TGI: > 100 µM
[40]
  TGI: > 100 µM
[41]
  TGI: > 100 µM
[42]
  TGI: > 100 µM
[43]
  TGI: > 100 µM
[44]
  TGI: > 100 µM
[45]
  TGI: > 100 µM
[46]
  TGI: > 100 µM
[47]
  TGI: > 100 µM
[48]
  TGI: > 100 µM
[49]
  TGI: > 100 µM

## O=C(O)C(Br)Cc1ccc2c(c1)OCO2 (stereo unspecified)
[1]
  TGI: 89.3 µM
[2]
  TGI: > 100 µM
[4]
  TGI: > 100 µM
[5]
  TGI: > 100 µM
[6]
  TGI: > 100 µM
[7]
  TGI: > 100 µM
[8]
  TGI: > 100 µM
[9]
  TGI: > 100 µM
[10]
  TGI: > 100 µM
[11]
  TGI: > 100 µM
[12]
  TGI: > 100 µM
[13]
  TGI: > 100 µM
[14]
  TGI: > 100 µM
[15]
  TGI: > 100 µM
[50]
  TGI: > 100 µM
[16]
  TGI: > 100 µM
[17]
  TGI: > 100 µM
[19]
  TGI: > 100 µM
[51]
  TGI: > 100 µM
[20]
  TGI: > 100 µM
[21]
  TGI: > 100 µM
[22]
  TGI: > 100 µM
[23]
  TGI: > 100 µM
[52]
  TGI: > 100 µM
[24]
  TGI: > 100 µM
[25]
  TGI: > 100 µM
[26]
  TGI: > 100 µM
[27]
  TGI: > 100 µM
[53]
  TGI: > 100 µM
[28]
  TGI: > 100 µM
[29]
  TGI: > 100 µM
[30]
  TGI: > 100 µM
[54]
  TGI: > 100 µM
[31]
  TGI: > 100 µM
[55]
  TGI: > 100 µM
[56]
  TGI: > 100 µM
[32]
  TGI: > 100 µM
[57]
  TGI: > 100 µM
[58]
  TGI: > 100 µM
[34]
  TGI: > 100 µM
[35]
  TGI: > 100 µM
[36]
  TGI: > 100 µM
[37]
  TGI: > 100 µM
[42]
  TGI: > 100 µM
[43]
  TGI: > 100 µM
[44]
  TGI: > 100 µM
[45]
  TGI: > 100 µM
[46]
  TGI: > 100 µM
[47]
  TGI: > 100 µM
[48]
  TGI: > 100 µM
[49]
  TGI: > 100 µM

## Nc1nccc(Nc2ccc(S(N)(=O)=O)cc2)n1
[2]
  TGI: > 100 µM
[3]
  TGI: > 100 µM
[4]
  TGI: > 100 µM
[5]
  TGI: > 100 µM
[6]
  TGI: > 100 µM
[7]
  TGI: > 100 µM
[8]
  TGI: > 100 µM
[9]
  TGI: > 100 µM
[10]
  TGI: > 100 µM
[11]
  TGI: > 100 µM
[59]
  TGI: > 100 µM
[60]
  TGI: > 100 µM
[12]
  TGI: > 100 µM
[13]
  TGI: > 100 µM
[14]
  TGI: > 100 µM
[50]
  TGI: > 100 µM
[16]
  TGI: > 100 µM
[17]
  TGI: > 100 µM
[19]
  TGI: > 100 µM
[20]
  TGI: > 100 µM
[21]
  TGI: > 100 µM
[22]
  TGI: > 100 µM
[61]
  TGI: > 100 µM
[23]
  TGI: > 100 µM
[52]
  TGI: > 100 µM
[24]
  TGI: > 100 µM
[25]
  TGI: > 100 µM
[26]
  TGI: > 100 µM
[27]
  TGI: > 100 µM
[53]
  TGI: > 100 µM
[62]
  TGI: > 100 µM
[29]
  TGI: > 100 µM
[30]
  TGI: > 100 µM
[54]
  TGI: > 100 µM
[31]
  TGI: > 100 µM
[63]
  TGI: > 100 µM
[55]
  TGI: > 100 µM
[56]
  TGI: > 100 µM
[32]
  TGI: > 100 µM
[57]
  TGI: > 100 µM
[33]
  TGI: > 100 µM
[64]
  TGI: > 100 µM
[65]
  TGI: > 100 µM
[35]
  TGI: > 100 µM
[37]
  TGI: > 100 µM
[66]
  TGI: > 100 µM
[38]
  TGI: > 100 µM
[39]
  TGI: > 100 µM
[40]
  TGI: > 100 µM
[42]
  TGI: > 100 µM
[43]
  TGI: > 100 µM
[44]
  TGI: > 100 µM
[67]
  TGI: > 100 µM
[45]
  TGI: > 100 µM
[46]
  TGI: > 100 µM
[68]
  TGI: > 100 µM
[47]
  TGI: > 100 µM
[48]
  TGI: > 100 µM
[49]
  TGI: > 100 µM

## COc1cc([C@H]2Oc3cc(O)c4c(=O)cc(-c5ccc(O)cc5)oc4c3O[C@@H]2CO)ccc1O
[2]
  TGI: 5.79 µM
[3]
  TGI: 39 µM
[4]
  TGI: 33.5 µM
[5]
  TGI: 31.7 µM
[8]
  TGI: 35.2 µM
[9]
  TGI: 17.8 µM
[10]
  TGI: 53.9 µM
[11]
  TGI: 26.4 µM
[15]
  TGI: 29.2 µM
[50]
  TGI: 34.2 µM
[16]
  TGI: 28 µM
[17]
  TGI: 47.8 µM
[51]
  TGI: 40 µM
[20]
  TGI: 83.5 µM
[21]
  TGI: 33.3 µM
[22]
  TGI: 31.1 µM
[23]
  TGI: 44.3 µM
[24]
  TGI: 63.4 µM
[26]
  TGI: 60.7 µM
[27]
  TGI: 36.6 µM
[53]
  TGI: 46 µM
[30]
  TGI: 63.2 µM
[54]
  TGI: 54.2 µM
[55]
  TGI: 18.5 µM
[56]
  TGI: 34 µM
[58]
  TGI: 32.3 µM
[34]
  TGI: 98.1 µM
[35]
  TGI: 18.6 µM
[36]
  TGI: 36.8 µM
[37]
  TGI: 59.3 µM
[40]
  TGI: 29.3 µM
[69]
  TGI: 24.1 µM
[41]
  TGI: 31.8 µM
[42]
  TGI: 53 µM
[44]
  TGI: 44.9 µM
[47]
  TGI: 28.5 µM
[48]
  TGI: 30.7 µM
